In patent US20220347310A1, “AMIDE-LINKED, AMINOBENZAZEPINE IMMUNOCONJUGATES, AND USES THEREOF” (BOLT BIOTHERAPEUTICS, INC., priority 2019, published 2022):

Experiments:
[1] = molecular target: T1, human TLR7 (Homo sapiens, UniProt Q9NYK1); test: HEK reporter assay, HEK293 reporter cells expressing human TLR7; assay type: cell-based; settings: for EC50: HEK293 NFKB reporter cells expressing human TLR7, read-out: HEK293 hTLR7 EC50; for TLR7 activity after NHBoc modification of the dipropylamide, versus parent compound: Human HEK293 reporter cells, BZA-2 vs BZA-1, BZA-4 vs BZA-3 (FIG. 1B, 1D)
T1 construct: host or cells: HEK293 NF-kB reporter cells
T1 sequence (Q9NYK1 27-1049): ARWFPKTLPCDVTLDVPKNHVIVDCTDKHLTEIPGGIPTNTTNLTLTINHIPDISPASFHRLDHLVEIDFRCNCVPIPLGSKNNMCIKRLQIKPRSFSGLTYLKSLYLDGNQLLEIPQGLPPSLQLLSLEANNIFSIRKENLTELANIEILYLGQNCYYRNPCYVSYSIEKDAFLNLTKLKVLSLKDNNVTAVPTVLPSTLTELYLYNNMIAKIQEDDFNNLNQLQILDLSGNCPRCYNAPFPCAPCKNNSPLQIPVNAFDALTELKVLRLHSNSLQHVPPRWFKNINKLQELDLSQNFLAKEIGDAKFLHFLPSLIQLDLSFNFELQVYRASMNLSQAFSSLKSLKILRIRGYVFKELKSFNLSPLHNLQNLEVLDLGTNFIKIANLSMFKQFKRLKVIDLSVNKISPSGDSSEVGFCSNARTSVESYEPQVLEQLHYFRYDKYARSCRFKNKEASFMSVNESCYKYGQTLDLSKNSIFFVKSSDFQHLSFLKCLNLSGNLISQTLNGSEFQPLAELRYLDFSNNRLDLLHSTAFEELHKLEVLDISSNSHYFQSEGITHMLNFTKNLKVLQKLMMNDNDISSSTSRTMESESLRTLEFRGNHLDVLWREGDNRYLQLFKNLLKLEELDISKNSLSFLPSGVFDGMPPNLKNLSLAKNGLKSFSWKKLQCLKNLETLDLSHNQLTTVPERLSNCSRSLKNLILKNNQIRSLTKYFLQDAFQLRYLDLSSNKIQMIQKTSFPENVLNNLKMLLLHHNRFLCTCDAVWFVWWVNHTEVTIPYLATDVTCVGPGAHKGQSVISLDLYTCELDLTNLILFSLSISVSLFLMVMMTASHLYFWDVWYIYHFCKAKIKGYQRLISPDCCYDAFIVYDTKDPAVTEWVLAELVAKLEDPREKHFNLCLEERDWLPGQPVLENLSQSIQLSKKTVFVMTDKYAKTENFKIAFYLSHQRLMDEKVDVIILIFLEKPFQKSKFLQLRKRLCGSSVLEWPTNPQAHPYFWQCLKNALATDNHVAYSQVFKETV
Description: Each compound was characterized by mass spectrometry and shown to have the mass indicated. Activity against HEK293 NFKB reporter cells expressing human TLR7 or human TLR8 was measured according to Example 30.
(§1) HEK293 reporter cells expressing human TLR7 or human TLR8 were purchased from Invivogen and vendor protocols were followed for cellular propagation and experimentation. Briefly, cells were grown to 80-85% confluence at 5% CO2 in DMEM supplemented with 10% FBS, Zeocin, and Blasticidin. Cells were then seeded in 96-well flat plates at 4×10^4 cells/well with substrate containing HEK detection medium and immunostimulatory molecules. Activity was measured using a plate reader at 620-655 nm wavelength.

[2] = molecular target: T2, human TLR8 (Homo sapiens, UniProt Q9NR97); test: HEK reporter assay, HEK293 reporter cells expressing human TLR8; assay type: cell-based; settings: for EC50: HEK293 NFKB reporter cells expressing human TLR8, read-out: HEK293 hTLR8 EC50; for TLR8 activity after NHBoc modification of the dipropylamide, versus parent compound: Human HEK293 reporter cells, BZA-2 vs BZA-1, BZA-4 vs BZA-3 (FIG. 1A, 1C)
T2 construct: host or cells: HEK293 NF-kB reporter cells
T2 sequence (Q9NR97 27-1041): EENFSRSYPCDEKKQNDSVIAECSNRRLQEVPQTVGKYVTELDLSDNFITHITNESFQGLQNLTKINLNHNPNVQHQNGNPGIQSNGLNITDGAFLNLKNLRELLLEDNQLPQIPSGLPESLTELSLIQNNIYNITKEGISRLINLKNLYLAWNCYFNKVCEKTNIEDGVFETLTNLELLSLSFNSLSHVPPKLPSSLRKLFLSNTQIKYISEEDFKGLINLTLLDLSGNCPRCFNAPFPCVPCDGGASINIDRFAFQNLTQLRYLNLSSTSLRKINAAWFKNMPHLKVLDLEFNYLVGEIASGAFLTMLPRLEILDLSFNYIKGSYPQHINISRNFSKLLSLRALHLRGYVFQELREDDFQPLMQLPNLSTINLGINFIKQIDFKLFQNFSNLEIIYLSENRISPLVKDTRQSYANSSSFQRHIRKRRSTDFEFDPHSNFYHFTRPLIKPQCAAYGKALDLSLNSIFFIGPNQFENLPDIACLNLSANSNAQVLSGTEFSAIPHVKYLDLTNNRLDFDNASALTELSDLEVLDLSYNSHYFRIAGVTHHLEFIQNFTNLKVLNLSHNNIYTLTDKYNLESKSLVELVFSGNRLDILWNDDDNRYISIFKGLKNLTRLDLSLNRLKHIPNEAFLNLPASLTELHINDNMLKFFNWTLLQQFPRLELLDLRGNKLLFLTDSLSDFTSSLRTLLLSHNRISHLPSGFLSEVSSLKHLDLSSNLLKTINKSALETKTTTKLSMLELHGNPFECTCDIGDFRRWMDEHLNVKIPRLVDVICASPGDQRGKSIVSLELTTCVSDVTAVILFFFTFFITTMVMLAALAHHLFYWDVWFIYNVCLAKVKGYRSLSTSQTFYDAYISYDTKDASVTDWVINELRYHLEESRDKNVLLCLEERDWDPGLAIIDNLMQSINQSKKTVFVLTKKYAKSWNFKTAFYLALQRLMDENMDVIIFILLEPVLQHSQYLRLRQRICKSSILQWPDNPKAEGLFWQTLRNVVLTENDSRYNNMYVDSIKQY
Description: Activity against HEK293 NFKB reporter cells expressing human TLR7 or human TLR8 was measured according to Example 30.
as §1

Compound | EC50 [1] | EC50 [2] | TLR7 activity after NHBoc modification of the dipropylamide, versus parent compound [1] | TLR8 activity after NHBoc modification of the dipropylamide, versus parent compound [2]
CCCN(CCCNC(=O)OC(C)(C)C)C(=O)C1=Cc2ccc(C(=O)Nc3cccc(COCCOCCNC(=O)OC(C)(C)C)c3)cc2N=C(N)C1 [8AmBza-8, tert-butyl N-[3-[[2-amino-8-[[3-[2-[2-(tert-butoxycarbonylamino)ethoxy]ethoxymethyl]phenyl]carbamoyl]-3H-1-benzazepine-4-carbonyl]-propyl-amino]propyl]carbamate] | > 9 µM | 0.862 µM | – | –
CCCN(CCC)C(=O)C1=Cc2ccc(C(=O)Nc3cncc(CNC(=O)CN)c3)cc2N=C(N)C1 [8AmBza-21] | > 9 µM | – | – | –
CCCN(CCC)C(=O)C1=Cc2ccc(C(=O)Nc3cncc(CNC(=O)CNC(=O)OC(C)(C)C)c3)cc2N=C(NC(=O)OC(C)(C)C)C1 [8AmBza-22] | > 9 µM | > 9 µM | – | –
CCCN(CCCNC(=O)OC(C)(C)C)C(=O)C1=Cc2ccc(C(=O)Nc3cnc(NCCNC(=O)OC(C)(C)C)nc3)cc2N=C(N)C1 [8AmBza-7, tert-butyl N-[3-[[2-amino-8-[[2-[2-(tert-butoxycarbonylamino)ethylamino]pyrimidin-5-yl]carbamoyl]-3H-1-benzazepine-4-carbonyl]-propyl-amino]propyl]carbamate] | > 9 µM | 1.76 µM | – | –
CCCN(CCC)C(=O)C1=Cc2ccc(C(=O)Nc3cnc4c(c3)CNCC4)cc2N=C(N)C1 [8AmBza-19] | – | 2.18 µM | – | –
CCCN(OCC)C(=O)C1=Cc2ccc(C(=O)Nc3ccc(N4CCC(C(=O)NCCN)CC4)nc3)cc2N=C(N)C1 [8AmBza-18, 2-amino-N8-[6-[4-(2-aminoethylcarbamoyl)-1-piperidyl]-3-pyridyl]-N4-ethoxy-N4-propyl-3H-1-benzazepine-4,8-dicarboxamide] | > 9 µM | 5.62 µM | – | –
CCCN(CCC)C(=O)C1=Cc2ccc(C(=O)Nc3cnc4c(c3)CN(C(=O)OC(C)(C)C)CC4)cc2N=C(NC(=O)OC(C)(C)C)C1 [8AmBza-20] | 8.13 µM | 6.08 µM | – | –

Next, values leading:

EC50 [1] | EC50 [2] | TLR7 activity after NHBoc modification of the dipropylamide, versus parent compound [1] | TLR8 activity after NHBoc modification of the dipropylamide, versus parent compound [2] | Compound
> 9 µM | 0.077 µM | – | – | CCCN(Cc1ccc(CN)cc1)C(=O)C1=Cc2ccc(C(=O)Nc3ccccc3)cc2N=C(N)C1 [8AmBza-16]
> 9 µM | 0.245 µM | – | – | CCCN(CCC(F)(F)F)C(=O)C1=Cc2ccc(C(=O)Nc3ccccc3)cc2N=C(N)C1 [8AmBza-14]
– | – | significantly increasing TLR7 activity | minimally perturbs TLR8 activity | CCCN(CCCNC(=O)OC(C)(C)C)C(=O)C1=Cc2ccc(-c3cccc(S(=O)(=O)N4CC(CO)C4)c3)cc2N=C(N)C1 [BZA-2, tert-butyl (3-(2-amino-8-(3-((3-(hydroxymethyl)azetidin-1-yl)sulfonyl)phenyl)-N-propyl-3H-benzo[b]azepine-4-carboxamido)propyl)carbamate, reference compound]
> 9 µM | 0.127 µM | – | – | CCCN(CCCNC(=O)OC(C)(C)C)C(=O)C1=Cc2ccc(C(=O)Nc3ccccc3)cc2N=C(N)C1 [8AmBza-9, tert-butyl (3-(2-amino-8-(phenylcarbamoyl)-N-propyl-3H-benzo [b]azepine-4-carboxamido)propyl)carbamate]
– | – | increases TLR 7 activity | does not affect TLR 8 activity | CCCN(CCCNC(=O)OC(C)(C)C)C(=O)C1=Cc2ccc(NC(=O)c3ccccc3)cc2N=C(N)C1 [BZA-4, tert-butyl (3-(2-amino-8-benzamido-N-propyl-3H-benzo[b]azepine-4-carboxamido)propyl)carbamate, reference compound]
4.86 µM | 0.034 µM | – | – | CCCN(OCC)C(=O)C1=Cc2ccc(C(=O)Nc3ccccc3)cc2N=C(N)C1 [8AmBza-15]
> 9 µM | 0.782 µM | – | – | CCCN(Cc1ccc(CNC(=O)OC(C)(C)C)cc1)C(=O)C1=Cc2ccc(C(=O)Nc3ccccc3)cc2N=C(N)C1 [8AmBza-17]
